Entries after “also recorded” stand apart in the source; their conditions may differ.
What was measured:
TRPC4 = target: T1, TRPC4 (Homo sapiens, UniProt Q9UBN4); test: FLIPR Ca2+ influx measurement, trypsin-stimulated TRPC4 HEK293 cells; assay type: cell-based; details: 200 nM trypsin
T1 construct: expressed in transfected cells; host or cells: HEK293 (inducible expression)
T1 sequence (Q9UBN4 1-977): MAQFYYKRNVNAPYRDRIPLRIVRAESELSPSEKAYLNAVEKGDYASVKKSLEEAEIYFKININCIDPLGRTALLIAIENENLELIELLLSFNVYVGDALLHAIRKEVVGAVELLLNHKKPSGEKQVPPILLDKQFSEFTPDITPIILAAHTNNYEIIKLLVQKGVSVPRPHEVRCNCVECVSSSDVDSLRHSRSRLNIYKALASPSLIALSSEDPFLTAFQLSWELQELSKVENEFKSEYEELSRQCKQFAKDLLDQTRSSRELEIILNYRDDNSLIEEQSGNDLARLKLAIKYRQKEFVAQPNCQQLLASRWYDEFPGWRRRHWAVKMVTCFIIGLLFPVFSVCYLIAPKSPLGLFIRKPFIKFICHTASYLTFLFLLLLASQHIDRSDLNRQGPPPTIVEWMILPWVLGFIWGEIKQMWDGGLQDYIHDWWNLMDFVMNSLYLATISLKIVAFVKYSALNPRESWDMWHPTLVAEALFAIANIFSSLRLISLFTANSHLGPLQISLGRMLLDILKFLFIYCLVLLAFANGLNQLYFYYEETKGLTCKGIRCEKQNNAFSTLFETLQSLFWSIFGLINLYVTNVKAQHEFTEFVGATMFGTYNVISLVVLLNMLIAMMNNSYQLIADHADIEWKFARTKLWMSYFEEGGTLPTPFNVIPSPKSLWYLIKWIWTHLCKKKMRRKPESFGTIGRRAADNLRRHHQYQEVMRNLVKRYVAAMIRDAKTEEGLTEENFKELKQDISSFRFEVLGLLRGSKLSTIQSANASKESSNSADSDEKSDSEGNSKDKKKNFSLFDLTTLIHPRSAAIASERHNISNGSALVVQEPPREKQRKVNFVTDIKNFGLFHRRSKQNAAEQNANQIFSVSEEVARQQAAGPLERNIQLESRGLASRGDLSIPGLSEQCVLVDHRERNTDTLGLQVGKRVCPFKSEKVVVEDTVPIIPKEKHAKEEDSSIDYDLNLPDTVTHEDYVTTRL
Text: In general, cells are provided which express a TRPC channel. Such cells can be produced using genetic methods known to a person skilled in the art. After having induced the expression of the TRPC channel, cells are usually plated into e.g. microtiter plates and grown. Usually the cells grow at the bottom of multiwell plates and are fixed. Thereafter, the cells are generally washed and loaded with a dye in a suitable loading buffer, preferably with a fluorescent dye such as fluo4am. After having removed the loading buffer, the cells are incubated with the test compound or modulator, in particular with a biochemical or chemical test compound as described above, e.g. in the form of a chemical compound library. Ca^2+ measurements can be carried out using e.g. a Fluorescence Imaging Plate Reader (FLIPR). To stimulate Ca^2+ influx through the TRPC channel a channel activator such as OAG should generally be applied.
When these experiments were performed, no direct physiological stimuli of TRPC4 and TRPC5 were known. Therefore, both channels had to be stimulated indirectly, e.g. by application of trypsin, a protease-activated receptor (PAR) stimulating protease. […] Kinetics and quantity of calcium store release in cells treated with 30 μM norgestimate were not changed compared to untreated cells. […]

[1] = test system: protease-activated receptor (PAR); test: Calcium release from ER in non-induced TRPC5 HEK293 FITR cells (PAR antagonism control); assay type: cell-based; details: 30 μM norgestimate, 10 min preincubation
Experimental: When these experiments were performed, no direct physiological stimuli of TRPC4 and TRPC5 were known. Therefore, both channels had to be stimulated indirectly, e.g. by application of trypsin, a protease-activated receptor (PAR) stimulating protease. […] PAR are G protein-coupled and their activation leads to calcium store depletion from endoplasmic reticulum (ER). This so called phosphatidylinositol (PI) response is independent of the channel's presence but consequently leads to activation of store-operated channels like TRPC4 and TRPC5. Basic prerequisite to measure the effect of norgestimate on both channels under these conditions is to exclude PAR antagonism of this potential channel inhibitor. […] Kinetics and quantity of calcium store release in cells treated with 30 μM norgestimate were not changed compared to untreated cells. Therefore, norgestimate is not a PAR antagonist and TRPC4 and TRPC5 activation via PAR stimulation is suitable to measure the channels inhibition by norgestimate.

For `C#C[C@]1(OC(C)=O)CC[C@H]2[C@@H]3CCC4=C/C(=N/O)CC[C@@H]4[C@H]3CC[C@@]21CC` [norgestimate, D-17β-acetoxy-B-ethyl-17α ethinyl-gon-4-en-3-one oxime], the “inhibitory effect on TRPC4-mediated Ca2+ influx” value (TRPC4; 30 μM norgestimate) was “only small inhibitory effects; also recorded: slightly reduced”, the IC50 (TRPC4; FLIPR, n=2) was greater than 30 µM and the “kinetics and quantity of calcium store release compared to untreated cells” value [1] was “not changed”.
